# Data published in patent US8613905B2, “Diagnostic agent” (United Arab Emirates University, priority 2007, dated 2013).
# “Also recorded” adds a separate entry of the source.
# Columns and labels:
# [1] = biological target: T1, fresh or aggregated α-synuclein (Homo sapiens, UniProt P37840); experiment: ELISA: binding of biotinylated peptides to coated α-synuclein; details: for binding to aggregated versus fresh α-synuclein: range of peptide concentrations, FIG. 3A, B; for binding to aggregated versus fresh α-synuclein / lowest binding concentration detected: α-synuclein coated at 100 pmol/well; for binding to coated fresh and aggregated α-synuclein: α-synuclein coated 20-200 pmol/well, peptides 200 pmol/well, FIG. 2; for binding to coated aggregated α-synuclein: aggregated α-synuclein coated at 500 pmol/well, data not shown
# T1 construct: made in house; host or cells: Escherichia coli
# Procedure: Various concentrations of fresh, or aggregated α-synuclein solutions (20-200 pmol/well) were coated on a microtiter plate to dry overnight at 37° C. Aggregated α-synuclein was therefore fixed to the microtiter plate. Aggregated α-synuclein was produced either by aging, dopamine treatment or nitration as indicated on the figures. After washing with PBS containing 0.05% Tween-20 (PBST) and blocking with blocking buffer (PBS containing 2.5% gelatin and 0.05% Tween-20), the biotinylated peptides (200 pmol/well in PBS) or BSA protein (negative control) were added and incubated for 1.5 hrs at room temperature (RT).
# Binding of peptides to α-synuclein was quantified using enzyme-linked avidin. Briefly, the plates were washed three times with PBST before the addition of 100 μl/well of extravidin peroxidase diluted at 1:5,000 in blocking buffer. Plates were then washed three times with PBST before the addition of TMB peroxidase substrate. Plates were left for 15 minutes at RT for colour to develop. The reaction was stopped by addition 100 μl/well of 0.5M sulphuric acid and the plates were read at 450 nm in a spectrophotometer.
# The effect of peptide concentration on binding to a fixed concentration of α-synuclein was tested by coating microtiter plates as above with 100 or 200 pmol/well of α-synuclein. […] The lowest binding concentration detected for both peptides was 10 pmol/well. […] The lowest binding concentration detected for all three peptides was 10 pmol/well. The binding properties of peptides 6 & 7 to coated fresh or aged α-synuclein were also tested. The binding for peptides 6&7 was detectable when aggregated α-synuclein was coated at 500 pmol/well (data not shown).
# The lowest binding concentration detected for dopamine treated α-synuclein was 1 pmol/well. Dopamine treated and nitrated α-synuclein are physiological approximations of the soluble aggregates (or adducts) present during the early stages of synucleinopathic diseases.
# [2] = system: SH-SY5Y neuroblastoma cells; experiment: Uptake of peptides into living neuronal cells (confocal microscopy); format: cell-based, human; details: peptides at 50 μM
# Procedure: SH-SY5Y or M17 neuroblastoma cells were grown in 15 ml medium in confluent flasks before splitting each suspension into petri dishes and allowing cells to grow on coverslips (˜5×10^3/plate) until the next day. Cells were then incubated with different peptides at 50 μM in growing media (total volume=2 ml). […] After 15 min incubation with respective peptides, the cells were washed 3 times with PBS. 2 ml of fixing solution (4% paraformaldehyde in PBS) was added to the cells which were then incubated for 30 min at room temperature. Fixing buffer was removed and 2 ml of permeabilization buffer (0.2% Triton-X-100 in PBS) was added to the cells for 30 min at room temperature and then removed. 2 ml of Blocking buffer was added, left for 1 hour at RT and then removed before addition of 1:100 FITC [Avidin labelled Fluorescein] (Vector Labs) in blocking buffer. Cells were incubated for 1 hour and then washed twice with PBS 0.05% tween. The coverslips were removed and plated with the cell bearing surface downwards on a glass slide, with the addition of a drop of mounting medium (Dako Cytomation). Cells were then visualized under the confocal microscope.
# [3] = biological target: T2, α-synuclein aggregates in TET-off regulated SH-SY5Y cells expressing A53T (Homo sapiens, UniProt P37840, A53T); experiment: Binding to α-synuclein aggregates in cell model; format: cell-based; details: 5 μM for 1, 2 & 4 hrs respectively (OR5, 6, 7); FIG. 13
# T2 construct: expressed in transfected cells; host or cells: inducible TET-off regulated SH-SY5Y cells (from Dr. Kostas Vekrellis)
# Procedure: This example utilises the inducible TET-off regulated SH-SY5Y system from Dr. Kostas Vekrellis (Foundation For Biomedical Research Academy of Athens). These transfected cells have shown to produce both soluble and insoluble aggregates of α-synuclein. The binding of the OR compounds to α-synuclein aggregates was investigated in this cell model.
# Cells expressing A53T were grown on coverslips in media without doxycycline and were differentiated for 7 days by adding retinoic acid at 10 μM. On day 6, cells were treated with 1 μM MG132 in media containing retinoic acid for 24 hrs. The biotinylated-OR5, 6 and 7 were added to the media at 5 μM for 1, 2 & 4 hrs respectively at 37° C.
# The media for the cells was then changed with fresh media without peptides and then incubated for another 15 mins for the cells to clear up the unbound peptides to α-synuclein aggregates. The cells were fixed and then treated with 0.2% Triton X in PBS for 15 minutes at RT, and after washing with PBS the blocking buffer, 0.5% BSA, was added.
# The cells were stained with anti-α-synuclein antibodies (MAb 211 or FL-140 (Santa Cruz Biotechnology)), and with Streptavidin-FITC (Sigma). α-synuclein aggregates were detected after staining with anti-mouse TRITC (Sigma) or anti-rabbit TRITC (Jackson ImmunoResearch Inc.) as appropriate.
# [4] = biological target: T1, fresh or aggregated α-synuclein; experiment: ELISA: coated peptides capturing free α-synuclein; format: binding; details: peptides coated 100 pmol/well; α-synuclein 0.001-200 pmol/well; FIG. 4
# Procedure: Peptides (100 pmol/well) were coated on a microtiter plate to dry overnight at 37° C. The peptides were therefore fixed to the microtiter plate. After washing with PBS containing 0.05% Tween 20 (PBST) and blocking with blocking buffer (PBS containing 2.5% gelatin and 0.05% Tween 20), various concentrations (0.001-200 pmol/well) of fresh or aggregated α-synuclein solution (produced by aging), or BSA protein (negative control) were added and incubated for 1.5 hrs at RT.
# Binding of α-synuclein to peptides was quantified using enzyme-linked antibody specific for α-synuclein. Briefly, the plates were washed three times with PBST before addition of the polyclonal rabbit α-synuclein antibody FL-140 at 1:1000 (in PBS). Plates were then washed three times with PBST before the addition of TMB peroxidase substrate. Plates were left for 15 min at RT for colour to develop. The reaction was stopped by addition 100 μl/well of 0.5M sulphuric acid and the plates were read at 450 nm in a spectrophotometer.
# [5] = biological target: T3, aggregated α-synuclein (Homo sapiens, UniProt P37840); experiment: Immunogold assay (EM) on preformed α-synuclein aggregates; format: binding; details: 50 μM aggregated α-synuclein on grids; FIG. 6
# T3 construct: made in house; host or cells: Escherichia coli
# Procedure: Copper grids were placed on 50 μl of 50 μM aggregated α-synuclein for 1 hour and then washed on 50 μl of PBS for 2 minutes before being placed on 50 μl blocking buffer (Vector) for 1 hour 30 minutes. Grids were washed 5 times with PBS (5 minutes each) and then soaked in either […] peptide 5 (in blocking buffer) or blocking buffer only (negative control) for 1 hour 30 minutes at room temperature. Grids were then washed 5 times with PBS (5 minutes each) and soaked in 50 μl of streptavidin-gold label (1:50) in blocking buffer for 30 minutes at room temperature. Grids were again washed 5 times with PBS (5 minutes each) and soaked in 50 μl of uranyl acetate (2% in distilled water) for 1 minute at room temperature before viewing under a transmission electron microscope.
# [6] = biological target: T4, oligomeric α-synuclein (dopamine treated α-synuclein) (Homo sapiens, UniProt P37840); experiment: Dot blotting of biotinylated peptides on α-synuclein; format: binding; details: FIG. 11
# T4 construct: made in house; host or cells: Escherichia coli
# Procedure: The binding of the peptides to the oligomeric α-synuclein was also tested using dot blotting. Monomeric α-synuclein (fresh α-synuclein solution) and oligomeric α-synuclein (dopamine treated α-synuclein) was spotted onto a nitrocellulose membrane. After the samples had been dried at room temperature for 2 hrs, the membranes were blocked, and then anti-α-synuclein MAb 211 or biotinylated-peptides were added to the membranes and incubated for 1.5 hr at room temperature. After gentle washing the membranes were treated with Extravidin-peroxidase or anti-mouse-peroxidase as appropriate. The binding of 211 and the peptides was detected using ECL reagents (Pierce). As shown in FIG. 11 the biotinylated-peptides bind specifically to the oligomeric but not monomeric forms of α-synuclein.
substance,measurement,setting,value
Gd-DOTA-rGtvvaGK(biotin)-rrrrrr [OR1],binding to aggregated versus fresh α-synuclein,[1],more binding to the aggregated than to the fresh α-synuclein
same,binding to coated fresh and aggregated α-synuclein,[1],high binding to both fresh and aggregated coated α-synuclein
same,lowest binding concentration detected,[1],10 pmol/well
Gd-DOTA-rGvvaGK(biotin)-rrrrrr [OR2],binding to aggregated versus fresh α-synuclein,[1],more binding to the aggregated than to the fresh α-synuclein
same,binding to coated fresh and aggregated α-synuclein,[1],high binding to both fresh and aggregated coated α-synuclein
same,lowest binding concentration detected,[1],10 pmol/well
Gd-DOTA-r-Sar-vva-Sar-K(biotin)-butadiamine [OR6],binding to coated aggregated α-synuclein,[1],detectable
same,incubation after which observed in living cells,[2],2 h
same,binding to α-synuclein aggregates formed inside cells,[3],bind to α-synuclein aggregates formed inside cells
Gd-DOTA-rrrrrrGvvaGK(biotin)-r [OR4],binding to coated fresh and aggregated α-synuclein,[1],more specific binding to the aggregated α-synuclein
same,capture of aggregated versus fresh α-synuclein by coated peptide,[4],captured more of the aggregated than the fresh α-synuclein
Gd-DOTA-rrrrrrGtvvaGK(biotin)-r [OR3],binding to coated fresh and aggregated α-synuclein,[1],more specific binding to the aggregated α-synuclein
Gd-DOTA-r-Sar-vva-Sar-K(biotin)-pentadiamine [OR7],binding to coated aggregated α-synuclein,[1],detectable
same,"binding to preformed α-synuclein aggregates (streptavidin-gold, EM)",[5],bind to preformed α-synuclein aggregates; also recorded: binding
same,incubation after which observed in living cells,[2],4 h
same,binding to α-synuclein aggregates formed inside cells,[3],bind to α-synuclein aggregates formed inside cells
Gd-DOTA-r-Sar-vva-Sar-K(biotin)-rrrrrr [OR5],"binding to aggregated α-synuclein generated by aging, dopamine treatment or nitration",[1]; FIG. 5,highly specific binding to all forms of aggregated α-synuclein
same,specificity for dopamine treated α-synuclein,[1]; FIG. 5,particularly high specificity
same,lowest binding concentration detected for dopamine treated α-synuclein,[1]; dopamine treated α-synuclein (soluble aggregates),1 pmol/well
same,"binding to preformed α-synuclein aggregates (streptavidin-gold, EM)",[5],bind to preformed α-synuclein aggregates; also recorded: binding
same,capture of aggregated versus fresh α-synuclein by coated peptide,[4],captured more of the aggregated than the fresh α-synuclein
same,binding to oligomeric versus monomeric α-synuclein (dot blot),[6],binding of biotinylated-peptide OR5 to α-synuclein oligomers
same,binding to α-synuclein aggregates formed inside cells,[3],bind to α-synuclein aggregates formed inside cells
